B1: RfxCas13d: Ruminococcus flavefaciens Cas13d, SEQ ID NO: 1 (protein)
chain: MIEKKKSFAKGMGVKSTLVSGSKVYMTTFAEGSDARLEKIVEGDSIRSVNEGEAFSAEMADKNAGYKIGNAKFSHPKGYAVVANNPLYTGPVQQDMLGLKETLEKRYFGESADGNDNICIQVIHNILDIEKILAEYITNAAYAVNNISGLDKDIIGFGKFSTVYTYDEFKDPEHHRAAFNNNDKLINAIKAQYDEFDNFLDNPRLGYFGQAFFSKEGRNYIINYGNECYDILALLSGLRHWVVHNNEEESRISRTWLYNLDKNLDNEYISTLNYLYDRITNELTNSFSKNSAANVNYIAETLGINPAEFAEQYFRFSIMKEQKNLGFNITKLREVMLDRKDMSEIRKNHKVFDSIRTKVYTMMDFVIYRYYIEEDAKVAAANKSLPDNEKSLSEKDIFVINLRGSFNDDQKDALYYDEANRIWRKLENIMHNIKEFRGNKTREYKKKDAPRLPRILPAGRDVSAFSKLMYALTMFLDGKEINDLLTTLINKFDNIQSFLKVMPLIGVNAKFVEEYAFFKDSAKIADELRLIKSFARMGEPIADARRAMYIDAIRILGTNLSYDELKALADTFSLDENGNKLKKGKHGMRNFIINNVISNKRFHYLIRYGDPAHLHEIAKNEAVVKFVLGRIADIQKKQGQNGKNQIDRYYETCIGKDKGKSVSEKVDALTKIITGMNYDQFDKKRSVIEDTGRENAEREKFKKIISLYLTVIYHILKNIVNINARYVIGFHCVERDAQLYKEKGYDINLKKLEEKGFSSVTKLCAGIDETAPDKRKDVEKEMAERAKESIDSLESANPKLYANYIKYSDEKKAEEFTRQINREKAKTALNAYLRNTKWNVIIREDLLRIDNKTCTLFRNKAVHLEVARYVHAYINDIAEVNSYFQLYHYIMQRIIMNERYEKSSGKVSEYFDAVNDEKKYNDRLLKLLCVPFGYCIPRFKNLSIEALFDRNEAAKFDKEKKKVSGNS

What was measured:
CD46 = test: Cycloheximide flow cytometric chase assay of CD46 protein degradation; assay type: cell-based; details: primary human T cells
transgenic GFP reporter = test: crRNA-guided knockdown of a transgenic GFP reporter in primary human T cells; assay type: cell-based; details: lentivirally-integrated

Molecule	CD46 expression after CHX addition (CD46)	functional activity: knockdown of GFP reporter (transgenic GFP reporter)
C[C@@H]1C[C@@H]([C@H](O)CC2CC(=O)NC(=O)C2)C(=O)[C@@H](C)C1 [CHX, cycloheximide]	did not reach half-maximal expression prior to T cell apoptosis	–
B1	–	confirmed the functional activity
